Assay results taken from patent US9868707B2, “Small molecule agonists of neurotensin receptor 1” (SANFORD-BURNHAM MEDICAL RESEARCH INSTITUTE, priority 2012, dated 2018).
Read-outs that look alike come from different tables or passages of the source.

Molecular target: NTR1 (Homo sapiens, UniProt P30989)
Assay: NTR1 high-content imaging (HCS) dose response, NTR1-U2OS cells
Assay type: cell-based
Set-up: host or cells: U2OS osteosarcoma
Conditions: n = 4 unless otherwise noted; for EC50: Ave. ± S.E.M., read-out: HCS NTR1 Potency EC50
Source text: The cell lines utilized in the high-content imaging assays, which include the NTR1-, NTR2-, and GPR35-U2OS osteosarcomas, were obtained from the laboratory of Dr. Lawrence Barak at the Duke University Medical Center. The media used in the culture of the cell lines, as well as the assays themselves, consisted of Minimum Essential Medium (15-010-CM) and L-glutamine (25-005-CL) from Cellgro/Mediatech (Manassas, Va.), fetal bovine serum (SH30396.03) from Hyclone (Logan, Utah), penicillin-streptomycin solution (PS-20) from Omega Scientific in Tarzana, Calif., G418 (ant-gn-1) from Invivogen (San Diego, Calif.), and zeocin (R250-01) from Invitrogen (Carlsbad, Calif.). Cell lines were cultured in T225 tissue culture flasks (431082) supplied by Corning (Corning, N.Y.). Additional reagents employed include Dulbecco's Phosphate-Buffered Saline (DPBS) (21-031CV) from Cellgro/Mediatech, Trypsin-EDTA 0.05% (25300) from Invitrogen, paraformaldehyde (30528954) from Acros Organics (Geel, Belgium), Hoechst 33342 (H3570) from Invitrogen. The high-content assays were run in 1536-well plates (29326) supplied by Aurora Biotechnology (Poway, Calif.) and utilized aluminum plate seals (T592100) from E&K Scientific (Santa Clara, Calif.).
The neurotensin 1 peptide (N6383) from Sigma-Aldrich (St. Louis, Mo.) was used as a positive control in the NTR1 primary HCS assay. For the NTR2 selectivity assay, the non-specific, small molecule 3-(4-fluorophenyl)-7,8-dimethoxy-5-(4-methylbenzyl)-5H-pyrazolo[4,3-c]quinolone which was synthesized internally was used as a positive control. The GPR35 selectivity screen utilized zaprinast (ALX430-020-M010) from Alexis Biochemicals (Farmingdale, N.Y.) as a control.
The high-content imaging based NTR1 primary screen in 1536-well format was utilized to assay the MLSMR library of chemical entities in the following manner. On day one, 4 uL of a cell suspension containing 350,000 NTR1-U2OS cells per mL is added to each well of a 1536-well assay plate. Cells are plated in MEM medium containing 2.5% Fetal Bovine Serum, 1% Penicillin/Streptomycin solution, 1% L-Glutamine, 400 ug/mL G418, and 200 ug/mL Zeocin. The assay plates are then incubated overnight at 37° C., under 5% CO2. Following the overnight incubation, a volume of 60 nL of the compounds at 2 mM in DMSO (final 20 μM, 1% DMSO) was transferred to columns 5-48 of the assay plates using a LabCyte Echo Liquid Handler. Next, 60 nL of DMSO were dispensed to columns 1-4, which served as the positive and neutral control wells. […] The assay plates were centrifuged on an Eppendorf 5810 centrifuge at 1000 rpm for 1 min to ensure even liquid levels in the wells of the assay plates. The assay plates were then returned to the incubator for 1 hour. Following the hour-long incubation at 37° C., the cells in each well were fixed with 4 uL of 6% paraformaldehyde added with a Multidrop Combi. The assay plates were centrifuged as before and incubated at room temperature for 1 hour. On the Kalypsys, plates were then aspirated down to 2.5 uL per well and washed twice with 11 uL per well of DPBS, followed by a final aspiration to 2.5 uL per well. On the Combi dispenser, 5 uL of 5 ug/mL Hoechst 33342 diluted in DPBS was added to each well of assay plates. The plates were again centrifuged as previously described, sealed, and incubated for at least 1 hour prior to being loaded on a PerkinElmer Opera QEHS.
Image acquisition was performed with a 45 plate capacity loader/stacker and the following settings: 40×0.6 NA air objective, acquisition camera set to 2-by-2 binning for an image size of 688 by 512 pixels, beta-arrestin-GFP acquired using 488 nm laser excitation and 540/75 nm emission filters, DAPI (nuclei) using 365 nm Xenon lamp excitation and 450/50 nm emission filters, 3 fields per well. Image analysis was performed using the Acapella Spot Detection Algorithm. For analysis settings and the metrics employed in the data analyses, please refer to supplemental information.

[1] = read-out: HCS NTR1 Potency Emax

Sequence of NTR1 (P30989 whole entry, species assumed): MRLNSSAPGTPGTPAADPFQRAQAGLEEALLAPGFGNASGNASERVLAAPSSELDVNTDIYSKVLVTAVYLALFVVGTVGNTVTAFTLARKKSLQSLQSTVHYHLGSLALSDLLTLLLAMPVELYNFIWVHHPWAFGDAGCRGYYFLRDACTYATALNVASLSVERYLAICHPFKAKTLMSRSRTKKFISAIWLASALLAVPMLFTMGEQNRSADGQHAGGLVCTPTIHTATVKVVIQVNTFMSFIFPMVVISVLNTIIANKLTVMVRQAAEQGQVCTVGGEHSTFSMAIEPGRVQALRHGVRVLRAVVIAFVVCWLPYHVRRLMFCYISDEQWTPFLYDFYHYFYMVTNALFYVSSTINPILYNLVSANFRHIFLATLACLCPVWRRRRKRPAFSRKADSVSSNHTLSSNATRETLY

| Structure (SMILES) | EC50 | Emax [1] | Emax (heading: HCS NTR1 Potency Emax) |
| --- | --- | --- | --- |
| COc1cc2nc(-c3ccccc3)nc(N3CCN(c4ccccc4OC)CC3)c2cc1OC [6,7-di-OMe; phenyl; 2-OMe, 2-phenyl-6,7-dimethoxy-4-(4-(2-methoxyphenyl)piperazin-1-yl)quinazoline] | 20 ± 10.7 µM | 78% | – |
| CCc1nc(N2CCN(c3ccccc3OC)CC2)c2cc(OC)c(OC)cc2n1 [Compound 310, 2-ethyl-6,7-dimethoxy-4-(4-(2-methoxyphenyl)piperazin-1-yl)quinazoline] | 42.6 ± 4.4 µM | 100% | – |
| CCCc1nc(N2CCN(c3ccccc3OC)CC2)c2cc(OC)c(OC)cc2n1 [Compound 311, 6,7-dimethoxy-4-(4-(2-methoxyphenyl)piperazin-1-yl)-2-propylquinazoline] | 16.6 ± 1.7 µM | 100% | – |
| COc1cc2nc(C(C)C)nc(N3CCN(c4ccccc4OC)CC3)c2cc1OC [Compound 312, 2-isopropyl-6,7-dimethoxy-4-(4-(2-methoxyphenyl)piperazin-1-yl)quinazoline] | 7.7 ± 1 µM | 100% | – |
| COc1cc2nc(CC(C)C)nc(N3CCN(c4ccccc4OC)CC3)c2cc1OC [Compound 313, 2-isobutyl-6,7-dimethoxy-4-(4-(2-methoxyphenyl)piperazin-1-yl)quinazoline] | 15.1 ± 1.5 µM | 96.3% | – |
| C=Cc1nc(N2CCN(c3ccccc3OC)CC2)c2cc(OC)c(OC)cc2n1 [Compound 314, 6,7-dimethoxy-4-(4-(2-methoxyphenyl)piperazin-1-yl)-2-vinylquinazoline] | 7 ± 1 µM | 100% | – |
| COc1cc2nc(C3CCCC3)nc(N3CCN(c4ccccc4OC)CC3)c2cc1OC [Compound 316, 2-cyclopentyl-6,7-dimethoxy-4-(4-(2-methoxyphenyl)piperazin-1-yl)quinazoline] | 5.8 ± 1.5 µM | 92.8% | – |
| COc1cc2nc(CCN3CCN(c4ccccc4OC)CC3)nc(N3CCN(c4ccccc4OC)CC3)c2cc1OC [Compound 319, 6,7-dimethoxy-4-(4-(2-methoxyphenyl)piperazin-1-yl)-2-(2-(4-(2-methoxyphenyl)piperazin-1-yl)ethyl)quinazoline] | 25.9 ± 13.7 µM | 74.3% | – |
| COc1cc2nc(C3CCC3)nc(N3CCN(c4ccccc4C)CC3)c2cc1OC [Compound 323, 2-cyclobutyl-6,7-dimethoxy-4-(4-(o-tolyl)piperazin-1-yl)quinazoline] | 14.9 ± 3.2 µM | – | 91.6% |
| COc1cc2nc(C3CCC3)nc(N3CCN(c4ccccc4Cl)CC3)c2cc1OC [Compound 325, 4-(4-(2-chlorophenyl)piperazin-1-yl)-2-cyclobutyl-6,7-dimethoxyquinazoline] | 12.2 ± 2.5 µM | 70.5% | – |
| COc1cc2nc(C3CCC3)nc(N3CCN(c4ccccc4[N+](=O)[O-])CC3)c2cc1OC [Compound 327, 2-cyclobutyl-6,7-dimethoxy-4-(4-(2-nitrophenyl)piperazin-1-yl)quinazoline] | 75.4 ± 1.1 µM | 100% | – |
| COc1cccc(N2CCN(c3nc(C4CCC4)nc4cc(OC)c(OC)cc34)CC2)c1 [Compound 328, 2-cyclobutyl-6,7-dimethoxy-4-(4-(3-methoxyphenyl)piperazin-1-yl)quinazoline] | 17.2 ± 1 µM | 74.9% | – |
| COc1ccc(N2CCN(c3nc(C4CCC4)nc4cc(OC)c(OC)cc34)CC2)cc1 [Compound 329, 2-cyclobutyl-6,7-dimethoxy-4-(4-(4-methoxyphenyl)piperazin-1-yl)quinazoline] | 46.4 ± 17.6 µM | 100% | – |
| COc1ccc(N2CCN(c3nc(C4CCC4)nc4cc(OC)c(OC)cc34)CC2)c(OC)c1 [Compound 330, 2-cyclobutyl-4-(4-(2,4-dimethoxyphenyl)piperazin-1-yl)-6,7-dimethoxyquinazoline] | 22.8 ± 0.4 µM | 103% | – |
| COc1ccc2nc(C3CCC3)nc(N3CCN(c4ccccc4OC)CC3)c2c1 [Compound 334, 2-cyclobutyl-6-methoxy-4-(4-(2-methoxyphenyl)piperazin-1-yl)quinazoline] | 10 ± 1.57 µM | 102% | – |
| COc1ccc2c(N3CCN(c4ccccc4OC)CC3)nc(C3CCC3)nc2c1 [Compound 335, 2-cyclobutyl-7-methoxy-4-(4-(2-methoxyphenyl)piperazin-1-yl)quinazoline] | 30 µM | 112% | – |
| COc1ccc2nc(C3CC3)nc(N3CCN(c4ccccc4OC)CC3)c2c1 [Compound 338, 2-cyclopropyl-6-methoxy-4-(4-(2-methoxyphenyl)piperazin-1-yl)quinazoline] | 4.1 ± 0.5 µM | 95.7% | – |
| COc1cc2nc(C3CC3)nc(N3CCN(Cc4ccc(C)cc4)CC3)c2cc1OC [Compound 342, 2-cyclopropyl-6,7-dimethoxy-4-(4-(4-methylbenzyl)piperazin-1-yl)quinazoline] | 25 ± 3.2 µM | – | – |

Next, values leading:

| EC50 | Emax [1] | Emax (heading: HCS NTR1 Potency Emax) | Structure (SMILES) |
| --- | --- | --- | --- |
| > 80 µM | – | – | COc1cc2nc(-c3ccccc3)nc(N3CCN(c4ccc(F)cc4)CC3)c2cc1OC [6,7-di-OMe; phenyl; 4-F, 2-phenyl-6,7-dimethoxy-4-(4-(4-fluorophenyl)piperazin-1-yl)quinazoline] |
| 13.8 ± 3.4 µM | 81.9% | – | COc1cc2nc(Cc3ccccc3)nc(N3CCN(c4ccccc4OC)CC3)c2cc1OC [Compound 309, 2-benzyl-6,7-dimethoxy-4-(4-(2-methoxyphenyl)piperazin-1-yl)quinazoline] |
| 14.2 ± 1.2 µM | 96.9% | – | COc1cc2nc(CC3CC3)nc(N3CCN(c4ccccc4OC)CC3)c2cc1OC [Compound 317, 2-(cyclopropylmethyl)-6,7-dimethoxy-4-(4-(2-methoxyphenyl)piperazin-1-yl)quinazoline] |
| 17.7 ± 1 µM | 97.2% | – | COc1cc2nc(C3CCC3)nc(N3CCN(c4ccccc4F)CC3)c2cc1OC [Compound 324, 2-cyclobutyl-4-(4-(2-fluorophenyl)piperazin-1-yl)-6,7-dimethoxyquinazoline] |
| 25.5 ± 1.7 µM | 91.4% | – | COc1cc2nc(C3CCC3)nc(N3CCN(c4ccccn4)CC3)c2cc1OC [Compound 326, 2-cyclobutyl-6,7-dimethoxy-4-(4-(pyridin-2-yl)piperazin-1-yl)quinazoline] |
| 61.2 ± 5.2 µM | 100% | – | COc1cc2nc(C3CCC3)nc(N3CCN(c4c(C)cccc4C)CC3)c2cc1OC [Compound 331, 2-cyclobutyl-4-(4-(2,6-dimethylphenyl)piperazin-1-yl)-6,7-dimethoxyquinazoline] |
| 22.6 ± 3.9 µM | 100% | – | COc1ccccc1N1CCN(c2nc(C3CCC3)nc3ccccc23)CC1 [Compound 336, 2-cyclobutyl-4-(4-(2-methoxyphenyl)piperazin-1-yl)quinazoline] |
| 33.7 ± 16.7 µM | 87% | – | COc1ccccc1N1CCN(c2nc(C3CCC3)nc3cc4c(cc23)OCO4)CC1 [Compound 337, 6-cyclobutyl-8-(4-(2-methoxyphenyl)piperazin-1-yl)-[1,3]dioxolo[4,5-g]quinazoline] |
| 6.1 ± 0.4 µM | 98.4% | – | CCOc1ccccc1N1CCN(c2nc(C3CC3)nc3cc(OC)c(OC)cc23)CC1 [Compound 339, 2-cyclopropyl-4-(4-(2-ethoxyphenyl)piperazin-1-yl)-6,7-dimethoxyquinazoline] |
| 19.8 ± 2.2 µM | 100% | – | COc1cc2nc(C3CC3)nc(N3CCN(c4ccccc4Cl)CC3)c2cc1OC [Compound 340, 4-(4-(2-chlorophenyl)piperazin-1-yl)-2-cyclopropyl-6,7-dimethoxyquinazoline] |
